“Also recorded” adds a separate entry of the source. Read-outs that look alike come from different tables or passages of the source. Where a SMILES comes first, the peptide text is derived from it. Bridges are numbered along the chain shown (N, C = ends). Roman numbers before positions name the chains, in order. Where no end group is shown, it is not given here. [ ]: non-standard residue; d: D form. Nle = CCCC[C@H](N)C(=O)O
How the values were obtained:
mouse model of asthma = assay: HDM experimental allergen challenge, in vivo mouse model of asthma; parameters: species or system mice; conditions: pre-clinical mouse model of asthma; preliminary data
Source text: FIG. 1A-C. Evaluation of SP-A-derived 10-mer native peptide in an in vivo mouse model of asthma. A) Schematic of HDM experimental allergen challenge. B) Newtonian resistance
(Rn) during methacholine challenge of wild-type mice 6 days after terminal HDM challenge. C) Total eosinophil counts in BAL (left panel) and mucin production (right panel) by PAS scoring. Unpaired t-test, *p<0.05, **p<0.01.

eosinophils = assay: Eosinophil cytotoxicity by real-time impedance tracing (xCELLigence RTCA); assay type: cell-based, IL-5 transgenic mice; conditions: for average AUC (decrease in cell index): 30 μg/ml; for Average magnitude of largest AUC: AUC of normalized cell index, negative AUC = cell death; for normalized cell index tracings over time (peptide activity): after 24 hours; for cytotoxic effect on eosinophils as measured by AUC: 3 μg/ml
Source text: IL-5 transgenic mice were euthanized and blood collected by cardiac puncture through the left ventricle. Red blood cells (RBCs) were lysed using a red blood cell lysis solution (Miltenyi Biotec, Auburn CA). Eosinophils were isolated by negative selection using biotin-conjugated antibodies (CD45R, Thy 1.2, F4/80) and magnetic beads, as previously described (see, Dy, A. B. C., et al., 2019 J Immunol 203: 1122-1130; Ledford, J. G., et al., 2012 PLoS One 7: e32436). Purity of each preparation was verified using standard morphometric analysis of cytocentrifuged slides stained with Easy III™ rapid differential staining kit (Azer Scientific, Morgantown Pa.) to be greater than 95%.
High throughput real-time monitoring of eosinophil cell death was assessed by measuring electrical impedance using the xCELLigence Real-Time Cell Analyzer (ACEA Biosciences, San Diego Calif.) as previously described (see, Dy, A. B. C., et al., 2019 J Immunol 203: 1122-1130; Flynn, A. N., et al., FASEB J 27: 1498-1510; Zeng, C., et al., Environ Res 164: 452-458). Using 96-well gold electrode coated plates (E-plates, ACEA Biosciences) incubated at 37° C. and 5% CO2, an initial background reading was obtained with media only. In a total volume of […] were seeded at 1×10^6 cells/well and allowed to settle for ˜5 hours. Test compounds were added at various concentrations (1, 3, 10 and 30 μg/ml) and changes in electrical impedance were measured over time. Impedance measurements were calculated and presented as normalized cell index (see, Flynn, A. N., et al., FASEB J 27: 1498-1510; Zeng, C., et al., Environ Res 164: 452-458), where a decrease in cell index corresponds to an increase in eosinophil cytotoxicity. Impedance tracings over time were derived from averages of 3-4 technical replicates. To quantify and compare cytotoxicity, the area under the curve (AUC) was calculated using cell index values. Half maximal effective concentration (EC50) values were generated using equivalent molar concentrations and their corresponding dose-response curves for each peptidomimetic.

[1] = Table 3 summary of lead peptidomimetics, eosinophils, RTCA, read-out: EC50

| Compound | EC50 (eosinophils) | Average magnitude of largest AUC (eosinophils; eosinophils, RTCA) | Concentration at which average AUC is largest (eosinophils; eosinophils, RTCA) | also measured |
| --- | --- | --- | --- | --- |
| Ac-KEQCVEMYTD (N-terminus assumed) [10-mer peptide, KEQCVEMYTD, reference compound] | 16000 nM | −2.62 | 24.00 µM | airway hyperresponsiveness (mouse model of asthma): reduce; airway mucus production (mouse model of asthma): reduce; eosinophilia (mouse model of asthma): reduce; average AUC (decrease in cell index) (eosinophils; eosinophils, RTCA): -2.62; EC50 (eosinophils; [1]): 16000 nM; normalized cell index tracings over time (peptide activity) (eosinophils; eosinophils, RTCA): decline in peptide activity after 24 hours |
| Ac-KEQCVEMYTD-OH [Peptidomimetic 870, Ac-KEQCVEMYTD-acid] | 10800 nM |  |  |  |
| CSCC[C@H](NC(=O)[C@H](CCC(=O)O)NC(=O)[C@@H](NC(=O)[C@H](CSSC[C@H](NC(=O)[C@H](CCC(N)=O)NC(=O)[C@H](CCC(=O)O)NC(=O)[C@H](CCCCN)NC(C)=O)C(=O)N[C@H](C(=O)N[C@@H](CCC(=O)O)C(=O)N[C@@H](CCSC)C(=O)N[C@@H](Cc1ccc(O)cc1)C(=O)N[C@H](C(=O)N[C@@H](CC(=O)O)C(N)=O)[C@@H](C)O)C(C)C)NC(=O)[C@H](CCC(N)=O)NC(=O)[C@H](CCC(=O)O)NC(=O)[C@H](CCCCN)NC(C)=O)C(C)C)C(=O)N[C@@H](Cc1ccc(O)cc1)C(=O)N[C@H](C(=O)N[C@@H](CC(=O)O)C(N)=O)[C@@H](C)O [Peptidomimetic 868, (Ac-KEQCVEMYTD-NH2)2] (I: Ac-KEQCVEMYTD-NH2 / II: Ac-KEQCVEMYTD-NH2; disulfide I:4-II:4) |  | −9.21 | 1.17 µM | cytotoxic effect on eosinophils as measured by AUC (eosinophils): most robust cytotoxic effect; also recorded: most comparable response to full-length SP-A; EC50 (eosinophils; [1]): 10900 nM |
| H-KEQCVEMYTD-OH [Peptidomimetic 871, H-KEQCVEMYTD-acid] | 2520 nM |  |  |  |
| Ac-KEQAVEMYTD-NH2 [Peptidomimetic 884, Ac-KEQAVEMYTD-NH2] | 10600 nM |  |  |  |
| Ac-KEQSVEMYTD-NH2 [Peptidomimetic 883, Ac-KEQSVEMYTD-NH2] | 9410 nM |  |  |  |
| CCCC[C@H](NC(=O)[C@H](CCC(=O)O)NC(=O)[C@@H](NC(=O)[C@H](CS)NC(=O)[C@H](CCC(N)=O)NC(=O)[C@H](CCC(=O)O)NC(=O)[C@H](CCCCN)NC(=O)CNC(=O)[C@H](Cc1c[nH]c2ccccc12)NC(C)=O)C(C)C)C(=O)N[C@@H](Cc1ccc(O)cc1)C(=O)N[C@H](C(=O)N[C@@H](CC(=O)O)C(N)=O)[C@@H](C)O [Peptidomimetic 892, Ac-WGKEQCVE-Nle-YTD-NH2] (Ac-WGKEQCVE[Nle]YTD-NH2) | 8 nM | −1.07 | 0.10 µM | magnitude of the calculated AUCs compared with full-length SP-A, 10-mer, 20-mer and several peptidomimetics (eosinophils; eosinophils, RTCA): much smaller |
| Ac-GDFRYSDGTPVNYTNWYRGE-NH2 [Peptidomimetic 889] | 1790 nM |  |  |  |
| CCCC[C@H](NC(=O)[C@H](CCC(=O)O)NC(=O)[C@@H](NC(=O)[C@H](CS)NC(=O)[C@H](CCC(N)=O)NC(=O)[C@H](CCC(=O)O)NC(=O)[C@H](CCCCN)NC(C)=O)C(C)C)C(=O)N[C@@H](Cc1ccc(O)cc1)C(=O)N[C@H](C(=O)N[C@@H](CC(=O)O)C(N)=O)[C@@H](C)O [Peptidomimetic 882, Ac-KEQCVE-Nle-YTD-NH2] (Ac-KEQCVE[Nle]YTD-NH2) | 3000 nM |  |  |  |
| Ac-WGKEQCVEMYTD-NH2 [Peptidomimetic 867, Ac-WGKEQCVEMYTD-NH2] |  | −9.06 | 1.96 µM | cytotoxic effect on eosinophils as measured by AUC (eosinophils): most robust cytotoxic effect; also recorded: most comparable response to full-length SP-A; EC50 (eosinophils; [1]): 950 nM |
| PAGRGKEQCVEMYTDGQWND [20-mer peptide, reference compound] | 14700 nM | −3.50 | 13.10 µM | airway hyperresponsiveness (mouse model of asthma): reduce; airway mucus production (mouse model of asthma): reduce; eosinophilia (mouse model of asthma): reduce; average AUC (decrease in cell index) (eosinophils; eosinophils, RTCA): -3.50; EC50 (eosinophils; [1]): 14700 nM; normalized cell index tracings over time (peptide activity) (eosinophils; eosinophils, RTCA): decline in peptide activity after 24 hours |
| Ac-SDGTPVNYTNWYRGEPAGRGKEQ-NH2 [Peptidomimetic 888] | 35 nM |  |  |  |
| CCCC[C@H](NC(=O)[C@H](CCC(=O)O)NC(=O)[C@@H](NC(=O)[C@H](CS)NC(=O)[C@H](CCC(N)=O)NC(=O)[C@H](CCC(=O)O)NC(=O)[C@H](CCCCN)NC(=O)CNC(=O)[C@H](CCCNC(=N)N)NC(C)=O)C(C)C)C(=O)N[C@@H](Cc1ccc(O)cc1)C(=O)N[C@H](C(=O)N[C@@H](CC(=O)O)C(N)=O)[C@@H](C)O [Peptidomimetic 893, Ac-RGKEQCVE-Nle-YTD-NH2] (Ac-RGKEQCVE[Nle]YTD-NH2) | 38 nM |  |  |  |
| CCCC[C@H](NC(=O)[C@H](CCC(=O)O)NC(=O)[C@@H](NC(=O)[C@H](C)NC(=O)[C@H](CCC(N)=O)NC(=O)[C@H](CCC(=O)O)NC(=O)[C@H](CCCCN)NC(=O)CNC(=O)[C@H](Cc1c[nH]c2ccccc12)NC(C)=O)C(C)C)C(=O)N[C@@H](Cc1ccc(O)cc1)C(=O)N[C@H](C(=O)N[C@@H](CC(=O)O)C(N)=O)[C@@H](C)O [Peptidomimetic 891, Ac-WGKEQAVE-Nle-YTD-NH2] (Ac-WGKEQAVE[Nle]YTD-NH2) | 1030 nM |  |  |  |
| Full-length SP-A: Full-length surfactant protein A; served as the positive control for eosinophil cell death |  | −13.89 | 0.86 µM | average AUC (decrease in cell index) (eosinophils; eosinophils, RTCA): −13.89; eosinophil cell death (eosinophils; eosinophils, RTCA): induced eosinophil cell death in a dose-dependent manner; EC50 (eosinophils; eosinophils, RTCA, concentration range 1, 3, 10 and 30 μg/ml, read-out: EC50 (half maximal effective concentration, based on AUC at each dose)): 158 nM |
| Ac-KEQCVEMYTD-NH2 [Peptidomimetic 856, Ac-KEQCVEMYTD-NH2] | 8210 nM |  |  |  |
| CCCC[C@H](NC(=O)[C@H](CCC(=O)O)NC(=O)[C@@H](NC(=O)[C@H](CS)NC(=O)[C@H](CCC(N)=O)NC(=O)[C@H](CCC(=O)O)NC(=O)[C@H](CCCCN)NC(=O)CNC(=O)[C@@H](Cc1c[nH]c2ccccc12)NC(C)=O)C(C)C)C(=O)N[C@@H](Cc1ccc(O)cc1)C(=O)N[C@H](C(=O)N[C@@H](CC(=O)O)C(N)=O)[C@@H](C)O [Peptidomimetic 894, Ac-wGKEQCVE-Nle-YTD-NH2] (Ac-[dW]GKEQCVE[Nle]YTD-NH2) | 12 nM | −1.63 | 0.01 µM | magnitude of the calculated AUCs compared with full-length SP-A, 10-mer, 20-mer and several peptidomimetics (eosinophils; eosinophils, RTCA): much smaller |

Reference: US20230135877A1, “COMPOSITIONS AND METHODS FOR TREATING AND PREVENTING LUNG DISEASE” (Arizona Board of Regents on Behalf of the University of …, priority 2020, published 2023)
